Read-outs that look alike come from different tables or passages of the source.
Experiments:
[1] = target: T1, hPXR (Homo sapiens (Human), UniProt O75469); assay: cell-based hPXR inverse agonistic assay; settings: for inhibition at 10 µM: read-out: Inverse agonist (% inhibition at 10 μM)
[2] = target: T1, hPXR; assay: cell-based hPXR antagonistic assay; settings: for inhibition at 10 µM: read-out: Antagonist (% inhibition at 10 μM)
[3] = target: T1, hPXR; assay: cell-based hPXR agonistic assay; settings: for Agonist (% activation at 10 μM): rifampicin at 10 μM as 100% activation, DMSO (0.3%) as 0%
[4] = target: T1, hPXR; assay: hPXR binding assay; settings: for inhibition at 10 µM: read-out: Binding (% inhibition at 10 μM)
[5] = read-out: Binding (IC50/μM), hPXR binding assay

T1 sequence (O75469 whole entry): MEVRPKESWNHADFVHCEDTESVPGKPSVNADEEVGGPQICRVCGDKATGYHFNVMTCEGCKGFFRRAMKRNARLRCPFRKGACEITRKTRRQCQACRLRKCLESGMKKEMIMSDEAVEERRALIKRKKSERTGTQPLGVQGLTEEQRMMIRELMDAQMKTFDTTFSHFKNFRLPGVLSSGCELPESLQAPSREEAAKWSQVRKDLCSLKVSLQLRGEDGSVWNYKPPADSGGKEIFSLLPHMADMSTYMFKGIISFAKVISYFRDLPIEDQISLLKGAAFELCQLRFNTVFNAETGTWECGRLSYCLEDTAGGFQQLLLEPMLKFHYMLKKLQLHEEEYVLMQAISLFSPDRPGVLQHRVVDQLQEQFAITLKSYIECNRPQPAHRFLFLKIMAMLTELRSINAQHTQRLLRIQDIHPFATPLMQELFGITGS

Row | SMILES | IC50 [1] [µM] | inhibition at 10 µM [1] [%] | IC50 [2] [µM] | inhibition at 10 µM [2] [%] | EC50 [3] [µM] | IC50 [4] [µM] | inhibition at 10 µM [4] [%] | IC50 [4, 5] [µM] | IC50 ([1]; read-out: Inverse agonist (IC50/μM), cell-based hPXR inverse agonistic assay) [µM] | Antagonist (% inhibition at 10 μM) ([2]; at 10 μM, SPA70 at 10 μM with rifampicin (5 μM) as 100% inhibition, rifampicin alone (5 μM) as 0%) | IC50 ([2]; read-out: Antagonist (IC50/μM), cell-based hPXR antagonistic assay with rifampicin (5 μM)) [µM] | Agonist (% activation at 10 μM) [3] | EC50 ([3]; read-out: Agonist (EC50/μM), cell-based hPXR agonistic assay) [µM]
1 | COc1ccc(OC)c(-n2nnc(C(=O)Nc3cc(C(C)(C)C)ccc3OCCCCN3CCN(C)CC3)c2C)c1 [B22, N-(5-(tert-butyl)-2-(4-(4-methylpiperazin-1-yl)butoxy)phenyl)-1-(2,5-dimethoxyphenyl)-5-methyl-1H-1,2,3-triazole-4-carboxamide] | 3.08 ± 0.55 | 168 | 6.09 ± 0.85 | 114 | > 30 | > 30 | – | – | – | – | – | – | –
2 | COc1ccc(OC)c(-n2nnc(C(=O)Nc3cc(C(C)(C)C)ccc3OCC(C)(C)C)c2C)c1 [B29] | 0.026 | 100 | 0.18 | 99 | > 30 | – | 85 | 0.0177 ± 0.0031 | – | – | – | – | –
3 | COc1ccc(OC)c(-n2nnc(C(=O)Nc3cc(OCCCN4CCN(C)CC4)cc(C(C)(C)C)c3)c2C)c1 [D18] | 3.73 ± 0.3 | 126 | 5.32 | 105 | > 30 | > 30 | – | – | – | – | – | – | –
4 | CCCC(CC)Oc1ccc(C(C)(C)C)cc1NC(=O)c1nnn(-c2cc(OC)ccc2OC)c1C (stereo not drawn) [B34, N-(5-(Tert-Butyl)-2-(Hexan-3-yloxy)Phenyl)-1-(2,5-Dimethoxyphenyl)-5-Methyl-1H-1,2,3-Triazole-4-Carboxamide] | 0.0023 ± 0.0008 | 147 | 0.012 ± 0.003 | 108 | > 30 | – | 92 | 0.019 | – | – | – | – | –
5 | COc1ccc(OC)c(-n2nnc(C(=O)Nc3cc(N(C)C)cc(C(C)(C)C)c3)c2C)c1 [D3, N-(3-(tert-butyl)-5-(dimethylamino)phenyl)-1-(2,5-dimethoxyphenyl)-5-methyl-1H-1,2,3-triazole-4-carboxamide] | – | – | – | – | > 30 | – | – | 0.27 ± 0.04 | 0.11 | (110 ± 3)% | 0.34 | – | –
6 | COc1ccc(OC)c(-n2nnc(C(=O)Nc3cc(C(C)(C)C)ccc3N)c2C)c1 [B37] | > 30 | – | > 30 | – | – | > 30 | – | – | – | – | – | (25 ± 7)% | 0.9 ± 0.22
7 | COc1ccc(Cl)cc1-n1nnc(C(=O)Nc2cc(O)cc(C(C)(C)C)c2)c1C [F4] | 0.29 ± 0.18 | 101 | 1.18 ± 0.21 | 104 | > 30 | – | 84 | 1.64 | – | – | – | – | –
8 | COc1ccc(OC)c(-n2nnc(C(=O)Nc3ccc(CN4CCN(C)CC4)cc3)c2C)c1 [A17] | > 30 | – | > 30 | – | > 30 | > 30 | – | – | – | – | – | – | –
9 | CCCC(C)Oc1ccc(C(C)(C)C)cc1NC(=O)c1nnn(-c2ccccc2OC)c1C (stereo not drawn) [I2] | > 30 | – | 0.032 | 78 | 0.049 ± 0.008 | – | 88 | 0.0072 ± 0.0001 | – | – | – | (23 ± 19)% | –
10 | COc1ccc(-n2nnc(C(=O)Nc3ccccc3)c2C)cc1 [E4] | > 30 | – | > 30 | – | > 30 | > 30 | – | – | – | – | – | – | –
11 | COc1ccc(OC)c(-n2nnc(C(=O)Nc3cccc(N(C)C)c3)c2C)c1 [A10] | > 30 | – | > 30 | – | > 30 | – | 49 | 10.5 ± 2.1 | – | – | – | – | –
12 | COc1ccc(-n2nnc(C(=O)Nc3cccc(C)c3)c2C)cc1 [E8] | > 30 | – | > 30 | – | > 30 | > 30 | – | – | – | – | – | – | –
13 | CCCCOc1cc(NC(=O)c2nnn(-c3cc(Cl)ccc3OC)c2C)cc(C(C)(C)C)c1 [F6] | 0.22 | 65 | 0.67 ± 0.16 | 94 | > 30 | – | 61 | 0.042 ± 0.011 | – | – | – | – | –
14 | COc1ccc(OC)c(-n2nnc(C(=O)Nc3ccc(NC(C)=O)c(C(C)(C)C)c3)c2C)c1 [C1, N-(4-acetamido-3-(tert-butyl)phenyl)-1-(2,5-dimethoxyphenyl)-5-methyl-1H-1,2,3-triazole-4-carboxamide] | > 30 | – | > 30 | – | 1.96 ± 0.19 | – | 65 | 1.81 ± 0.52 | – | – | – | (50 ± 14)% | –
15 | COc1ccc(OC)c(-n2nnc(C(=O)Nc3cc(C(C)(C)C)ccc3OCCOCCOCCOCCO)c2C)c1 [B10] | 0.43 ± 0.14 | 95 | 1.92 ± 0.23 | 102 | > 30 | – | 62 | 2.34 ± 0.57 | – | – | – | – | –
16 | CCC(C)Oc1ccc(C(C)(C)C)cc1NC(=O)c1nnn(-c2ccccc2OC)c1C (stereo not drawn) [I3] | > 30 | – | 0.061 ± 0.011 | 66 | 0.066 ± 0.013 | – | 88 | 0.0085 ± 0.0011 | – | – | – | (25 ± 3)% | –
17 | COc1ccc(-n2nnc(C(=O)Nc3cc(C)ccc3OC)c2C)cc1 [E10] | > 30 | – | > 30 | – | > 30 | – | 53 | 1.2 ± 0.3 | – | – | – | – | –
18 | COc1ccc(OC)c(-n2nnc(C(=O)Nc3cc(OCC(=O)OC(C)(C)C)cc(C(C)(C)C)c3)c2C)c1 [D31, tert-butyl 2-(3-(tert-butyl)-5-(1-(2,5-dimethoxyphenyl)-5-methyl-1H-1,2,3-triazole-4-carboxamido)phenoxy)acetate] | 0.1 | 126 | 0.43 | 105 | > 30 | – | 73 | 0.16 | – | – | – | – | –
19 | COc1ccc(OC)c(-n2nnc(C(=O)Nc3cc(C(C)(C)C)ccc3OC(=O)c3nnn(-c4cc(OC)ccc4OC)c3C)c2C)c1 [B3, 4-(tert-butyl)-2-(1-(2,5-dimethoxyphenyl)-5-methyl-1H-1,2,3-triazole-4-carboxamido)phenyl 1-(2,5-dimethoxyphenyl)-5-methyl-1H-1,2,3-triazole-4-carboxylate] | > 30 | – | > 30 | – | 0.59 | > 30 | – | – | – | – | – | (55 ± 6)% | –
20 | COc1ccc(-n2nnc(C(=O)Nc3ccc(N)c(C(C)(C)C)c3)c2C)cc1 [E3, N-(4-amino-3-(tert-butyl)phenyl)-1-(4-methoxyphenyl)-5-methyl-1H-1,2,3-triazole-4-carboxamide] | > 30 | – | > 30 | – | 0.86 ± 0.12 | > 30 | – | – | – | – | – | (29 ± 4)% | –
21 | COc1ccc(-n2nnc(C(=O)Nc3cccc(N4CCCC4)c3)c2C)cc1 [E1, 1-(4-methoxyphenyl)-5-methyl-N-(3-(pyrrolidin-1-yl)phenyl)-1H-1,2,3-triazole-4-carboxamide] | > 30 | – | > 30 | – | 0.32 ± 0.1 | > 30 | – | – | – | – | – | (30 ± 7)% | –
22 | COc1ccc(OC)c(-n2nnc(C(=O)Nc3cc(OCCCCCCCC=O)cc(C(C)(C)C)c3)c2C)c1 [D26] | 0.24 | 111 | 1.28 ± 0.28 | 189 | > 30 | – | 77 | 1.13 ± 0.36 | – | – | – | – | –
23 | COc1ccc(OC)c(-n2nnc(C(=O)Nc3cc(C(C)(C)C)ccc3OCC(=O)OC(C)(C)C)c2C)c1 [B24, tert-butyl 2-(4-(tert-butyl)-2-(1-(2,5-dimethoxyphenyl)-5-methyl-1H-1,2,3-triazole-4-carboxamido)phenoxy)acetate] | > 30 | – | > 30 | – | 0.27 | – | 74 | 0.5 ± 0.2 | – | – | – | (77 ± 1)% | –

Second part, the compound after the results:

Row | IC50 [1] [µM] | inhibition at 10 µM [1] [%] | IC50 [2] [µM] | inhibition at 10 µM [2] [%] | EC50 [3] [µM] | IC50 [4] [µM] | inhibition at 10 µM [4] [%] | IC50 [4, 5] [µM] | IC50 ([1]; read-out: Inverse agonist (IC50/μM), cell-based hPXR inverse agonistic assay) [µM] | Antagonist (% inhibition at 10 μM) ([2]; at 10 μM, SPA70 at 10 μM with rifampicin (5 μM) as 100% inhibition, rifampicin alone (5 μM) as 0%) | IC50 ([2]; read-out: Antagonist (IC50/μM), cell-based hPXR antagonistic assay with rifampicin (5 μM)) [µM] | Agonist (% activation at 10 μM) [3] | EC50 ([3]; read-out: Agonist (EC50/μM), cell-based hPXR agonistic assay) [µM] | SMILES
24 | 0.0084 ± 0.004 | 130 | 0.052 ± 0.01 | 103 | > 30 | – | 88 | 0.019 ± 0.003 | – | – | – | – | – | CCC[C@@H](CC)Oc1ccc(C(C)(C)C)cc1NC(=O)c1nnn(-c2cc(OC)ccc2OC)c1C [M2, (R)—N-(5-(Tert-Butyl)-2-(Hexan-3-yloxy)Phenyl)-1-(2,5-Dimethoxyphenyl)-5-Methyl-1H-1,2,3-Triazole-4-Carboxamide]
25 | > 30 | – | > 30 | – | 3.39 ± 0.14 | > 30 | – | – | – | – | – | (61 ± 4)% | – | COc1ccc(OC)c(-n2nnc(NC(=O)Nc3ccc(C(C)(C)C)cc3)c2C)c1 [K3]
26 | > 30 | – | 5.44 ± 1 | 40 | > 30 | > 30 | – | – | – | – | – | – | – | COc1ccc(OC)c(-n2nnc(C(=O)Nc3cc(OCCOCCOCCOCCNC(=O)CCCC[C@@H]4SC[C@@H]5NC(=O)N[C@@H]54)cc(C(C)(C)C)c3)c2C)c1 [L1]
27 | > 30 | – | > 30 | – | 1.68 ± 0.34 | – | 10 | 0.12 | – | – | – | (16 ± 6)% | – | CCCCOc1ccc(C(C)(C)C)cc1NC(=O)c1nnn(-c2cc(OC)ccc2C)c1C [H11]
28 | > 30 | – | 65 ± 28 | 15 | 0.0066 ± 0.0002 | 0.045 ± 0.013 | 94 | – | – | – | – | (92 ± 8)% | – | CCC[C@H](CC)Oc1ccc(C(C)(C)C)cc1NC(=O)c1nnn(-c2cc(C)c(OC)cc2OC)c1C [M11, (S)—N-(5-(Tert-Butyl)-2-(Hexan-3-yloxy)Phenyl)-1-(2,4-Dimethoxy-5-Methylphenyl)-5-Methyl-1H-1,2,3-Triazole-4-Carboxamide]
29 | 0.044 ± 0.014 | 79 | 0.15 | 104 | > 30 | – | 87 | 0.25 | – | – | – | – | – | CCCCNc1cc(NC(=O)c2nnn(-c3cc(C)ccc3OC)c2C)cc(C(C)(C)C)c1 [G6]

Reference: patent US20250282736A1, “SMALL MOLECULE MODULATORS OF HUMAN PREGNANE X RECEPTOR” (ST. JUDE CHILDREN'S RESEARCH HOSPITAL, priority 2022, published 2025)
